For one test, the target named is T1, LmjIPCS (inositol phosphorylceramide synthase from L. major) (Leishmania major, UniProt E9AFX2).
T1 sequence (E9AFX2 1-338): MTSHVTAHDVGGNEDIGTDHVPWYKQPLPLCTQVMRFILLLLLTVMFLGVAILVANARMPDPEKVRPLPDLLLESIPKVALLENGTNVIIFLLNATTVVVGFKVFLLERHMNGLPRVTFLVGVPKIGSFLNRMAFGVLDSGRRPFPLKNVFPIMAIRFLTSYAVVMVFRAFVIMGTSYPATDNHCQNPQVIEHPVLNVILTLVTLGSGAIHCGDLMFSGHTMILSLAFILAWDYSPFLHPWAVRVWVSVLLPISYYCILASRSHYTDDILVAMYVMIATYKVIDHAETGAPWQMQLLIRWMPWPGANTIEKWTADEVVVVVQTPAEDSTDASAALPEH
The test can be described thus: biochemical. It counts as biochemical. Set-up: inhibition: dose or concentration left out as unconfirmed.
Conditions: not given
Take `CNCCCN1c2ccccc2CCc2ccccc21` [DESIPRAMINE]: the “20mM inhibition LmjIPCS” value amounted to 64%.

As to `C[C@@H]1C[C@H]2[C@@H]3CCC4=CC(=O)C=C[C@]4(C)[C@@]3(F)[C@@H](O)C[C@]2(C)[C@@]1(O)C(=O)CO` [DEXAMETHASONE], the “20mM inhibition LmjIPCS” value is 44%.

For the compound `COc1ccc2c(c1)[C@]13CCCC[C@@H]1[C@H](C2)N(C)CC3` [DEXTROMETHORPHAN], the “20mM inhibition LmjIPCS” value is given as 64%.

Take `O=C(CC(=O)c1ccccc1)c1ccccc1` [DIBENZOYLMETHANE]: the “20mM inhibition LmjIPCS” value is reported as 44%.

Turning to `CCCCOc1cc(C(=O)NCCN(CC)CC)c2ccccc2n1` [DIBUCAINE], the “20mM inhibition LmjIPCS” value is given as 63%.

With `CC[C@H]1OC(=O)[C@H](C)[C@@H](O[C@H]2C[C@@](C)(OC)[C@@H](O)[C@H](C)O2)[C@H](C)[C@@H](O[C@@H]2O[C@H](C)C[C@H](N(C)C)[C@H]2O)[C@](C)(O)C[C@@H](C)[C@@H]2N[C@@H](COCCOC)O[C@H]([C@H]2C)[C@]1(C)O` [DIRITHROMYCIN], the “20mM inhibition LmjIPCS” value is 47%.

Consider `O=C(CCCN1CC=C(n2c(=O)[nH]c3ccccc32)CC1)c1ccc(F)cc1` [DROPERIDOL], for which the “20mM inhibition LmjIPCS” value is 56%.

As to `CCCCOc1ccc(C(=O)CCN2CCCCC2)cc1` [DYCLONINE], the “20mM inhibition LmjIPCS” value was 61%.

As to `O=c1c2ccccc2[se]n1-c1ccccc1` [EBSELEN], the “20mM inhibition LmjIPCS” value stood at 42%.

As for `CN[C@@H](C)[C@H](O)c1ccccc1` [EPHEDRINE (1R,2S)], the “20mM inhibition LmjIPCS” value is 8%.

`CNC(=O)Oc1ccc2c(c1)[C@]1(C)CCN(C)[C@@H]1N2C` [ESERINE]: the “20mM inhibition LmjIPCS” value turned out to be 9%.

`COc1ccc2c(c1)CC[C@@H]1[C@@H]2CC[C@]2(C)[C@@H](O)CC[C@@H]12` [ESTRADIOL METHYL ETHER]: the “20mM inhibition LmjIPCS” value is recorded as 40%.

Staying with this test, now noted: NINDS set screen, single concentration 20mM as printed.
`Cc1c(N(C)CS(=O)(=O)[O-])c(=O)n(-c2ccccc2)n1C.[Na+]` [DIPYRONE]: the “20mM inhibition LmjIPCS” value is on record as -7.57%.

Still in this test, the particulars now being: NINDS set screen, single concentration printed as 20mM.
Regarding `CC(=O)Oc1ccccc1C(=O)Oc1ccccc1C(=O)O` [DIPLOSALSALATE], the “20mM inhibition LmjIPCS” value amounted to 67%.

With `CCn1cc(C(=O)O)c(=O)c2cc(F)c(N3CCNCC3)nc21` [ENOXACIN], the “20mM inhibition LmjIPCS” value was found to be 56%.

On to `CC(=O)Oc1ccc2c(c1)CC[C@@H]1[C@@H]2CC[C@]2(C)[C@@H](O)CC[C@@H]12` [ESTRADIOL ACETATE], for which the “20mM inhibition LmjIPCS” value is listed as 68%.

The test is the same for the next values; noted with them: NINDS set screen; read-out: inhibition LmjIPCS.
Regarding `C=CCSCC=C` [DIALLYL SULFIDE], the inhibition came to 17%.

Turning to `OCCN(CCO)c1nc(N2CCCCC2)c2nc(N(CCO)CCO)nc(N3CCCCC3)c2n1` [DIPYRIDAMOLE], the inhibition was -11%.

`C[C@H]1c2cccc(O)c2C(=O)C2=C(O)[C@]3(O)C(=O)C(C(N)=O)=C(O)[C@@H](N(C)C)[C@@H]3[C@@H](O)[C@@H]21` [DOXYCYCLINE]: the inhibition turned out to be 30%.

On to `Cn1c(=O)c2c(ncn2CC(O)CO)n(C)c1=O` (stereo not drawn) [DYPHYLLINE], for which the inhibition is -5.31%.

As for `CCCCCCCC/C=C/CCCCCCCCOP(=O)([O-])OCC[N+](C)(C)C` [ELAIDYLPHOSPHOCHOLINE], the inhibition is -7%.

`O=c1oc2c(O)c(O)cc3c(=O)oc4c(O)c(O)cc1c4c23` [ELLAGIC ACID]: the inhibition is 22%.

`O=C(O)c1cc(O)c2c(c1)C(=O)c1cc(O)cc(O)c1C2=O` [EMODIC ACID]: the inhibition worked out at 14%.

For the compound `CCC(=O)O[C@H]1[C@H](O[C@@H]2[C@@H](C)[C@H](O[C@H]3C[C@@](C)(OC)[C@@H](O)[C@H](C)O3)[C@@H](C)C(=O)O[C@H](CC)[C@@](C)(O)[C@H](O)[C@@H](C)C(=O)[C@H](C)C[C@@]2(C)O)O[C@H](C)C[C@@H]1N(C)C` [ERYTHROMYCIN ESTOLATE], the inhibition turned out to be 22%.

Staying with this test, now noted: read-out: 20mM inhibition LmjIPCS.
For `O=c1cccc2n1C[C@@H]1CNC[C@H]2C1` [CYTISINE], the inhibition at 20000 µM worked out at 9%.

Take `CCN1C[C@]2(C)CC[C@H](OC)[C@@]34C1[C@]1(OCO[C@@]15C[C@H](OC)[C@H]1C[C@]3(O)[C@@H]5[C@H]1OC)[C@@H](OC(C)=O)[C@H]24` [DELTALINE]: the inhibition at 20000 µM came out at 22%.

With `CN(C)[C@@H]1C(O)=C(C(N)=O)C(=O)[C@@]2(O)C(O)=C3C(=O)c4c(O)ccc(Cl)c4[C@@H](O)[C@H]3C[C@@H]12` [DEMECLOCYCLINE], the inhibition at 20000 µM was -2%.

With `COc1ccc(-c2cc(C(F)F)nn2-c2ccc(S(N)(=O)=O)cc2)cc1F` [DERACOXIB], the inhibition at 20000 µM was 28%.

With `CC(=O)OCC(=O)[C@H]1CC[C@H]2[C@@H]3CCC4=CC(=O)CC[C@]4(C)[C@H]3CC[C@]12C` [DESOXYCORTICOSTERONE ACETATE], the inhibition at 20000 µM came out at 17%.

In the case of `CC(=O)OCC(=O)[C@@]1(O)[C@H](C)C[C@H]2[C@@H]3CCC4=CC(=O)C=C[C@]4(C)[C@@]3(F)[C@@H](O)C[C@@]21C` [DEXAMETHASONE ACETATE], the inhibition at 20000 µM is -3.4%.

For `CC1=NS(=O)(=O)c2cc(Cl)ccc2N1` [DIAZOXIDE], the inhibition at 20000 µM is 5%.

Turning to `c1ccc2c(c1)sc1ccccc12` [DIBENZOTHIOPHENE], the inhibition at 20000 µM turned out to be 32%.

As for `Cc1onc(-c2c(Cl)cccc2Cl)c1C(=O)N[C@@H]1C(=O)N2[C@@H]1SC(C)(C)[C@@H]2C(=O)O` [DICLOXACILLIN], the inhibition at 20000 µM worked out at 2.55%.

`C/C=C(/C(=C/C)c1ccc(O)cc1)c1ccc(O)cc1` [DIENESTROL]: the inhibition at 20000 µM is -4%.

`CCN(CC)C(=O)c1cccc(C)c1` [DIETHYLTOLUAMIDE]: the inhibition at 20000 µM stood at 17%.

Take `O=C(O)c1cc(-c2ccc(F)cc2F)ccc1O` [DIFLUNISAL]: the inhibition at 20000 µM is -4.4%.

Take `C[C@H]1O[C@@H](O[C@H]2[C@@H](O)C[C@H](O[C@H]3[C@@H](O)C[C@H](O[C@H]4CC[C@@]5(C)[C@H](CC[C@@H]6[C@@H]5CC[C@]5(C)[C@@H](C7=CC(=O)OC7)CC[C@]65O)C4)O[C@@H]3C)O[C@@H]2C)C[C@H](O)[C@@H]1O` [DIGITOXIN]: the inhibition at 20000 µM was determined as 5.28%.

In the case of `C[C@H]1O[C@@H](O[C@H]2[C@@H](O)C[C@H](O[C@H]3[C@@H](O)C[C@H](O[C@H]4CC[C@@]5(C)[C@H](CC[C@@H]6[C@@H]5C[C@@H](O)[C@]5(C)[C@@H](C7=CC(=O)OC7)CC[C@]65O)C4)O[C@@H]3C)O[C@@H]2C)C[C@H](O)[C@@H]1O` [DIGOXIN], the inhibition at 20000 µM worked out at 5.32%.

Regarding `CCCCCC1C(=O)CCC1CC(=O)OC` (stereo not drawn) [DIHYDROJASMONIC ACID, METHYL ESTER], the inhibition at 20000 µM is -2%.

Turning to `CCCCCC1C(=O)CCC1CC(=O)O` (stereo not drawn) [DIHYDROJASMONIC ACID], the inhibition at 20000 µM stood at 20%.

For `CN[C@@H]1[C@H](O[C@H]2[C@H](O[C@H]3[C@H](O)[C@@H](O)[C@H](NC(=N)N)[C@@H](O)[C@@H]3NC(=N)N)O[C@@H](C)[C@]2(O)CO)O[C@@H](CO)[C@H](O)[C@H]1O` [DIHYDROSTREPTOMYCIN], the inhibition at 20000 µM came to 12%.

Turning to `NCCc1ccc(O)c(O)c1` [DOPAMINE], the inhibition at 20000 µM was -1.1%.

Consider `OCC(O)CN1CCN(c2ccccc2)CC1` (stereo not drawn) [DROPROPIZINE], for which the inhibition at 20000 µM was 18%.

Regarding `CC[N+](C)(C)c1cccc(O)c1` [EDROPHONIUM], the inhibition at 20000 µM is 12%.

Consider `CC[C@H]1CN2CCc3cc(OC)c(OC)cc3[C@@H]2C[C@@H]1C[C@H]1NCCc2cc(OC)c(OC)cc21` [EMETINE], for which the inhibition at 20000 µM was 11%.

Take `C[C@@H](CO)NC(=O)[C@@H]1C=C2c3cccc4[nH]cc(c34)C[C@H]2N(C)C1` [ERGONOVINE]: the inhibition at 20000 µM is 6.33%.

Staying with this test, now noted: read-out: inhibition LmjIPCS.
Take `Nc1ccn([C@@H]2O[C@H](CO)[C@@H](O)[C@@H]2O)c(=O)n1` [CYTARABINE]: the inhibition is -1.69%.

Take `C#C[C@]1(O)CC[C@H]2[C@@H]3CCC4=Cc5oncc5C[C@]4(C)[C@H]3CC[C@@]21C` [DANAZOL]: the inhibition was 19%.

As to `Nc1ccc(S(=O)(=O)c2ccc(N)cc2)cc1` [DAPSONE], the inhibition is 1.23%.

In the case of `CC(=O)N(O)CCCCCNC(=O)CCC(=O)N(O)CCCCCNC(=O)CCC(=O)N(O)CCCCCN` [DEFEROXAMINe], the inhibition is -4.52%.

In the case of `C[C@@H]1C[C@H]2[C@@H]3CCC4=CC(=O)C=C[C@]4(C)[C@@]3(F)[C@@H](O)C[C@]2(C)[C@@]1(O)C(=O)CO` [DEXAMETHASONE], the inhibition is -4%.

Turning to `O=C(O)Cc1ccccc1Nc1c(Cl)cccc1Cl` [DICLOFENAC], the inhibition was -6.5%.

As to `O=c1oc2ccccc2c(O)c1Cc1c(O)c2ccccc2oc1=O` [DICUMAROL], the inhibition is -3%.

With `CCN(CC)C(=O)N1CCN(C)CC1` [DIETHYLCARBAMAZINE], the inhibition was -3%.

With `COc1ccc([C@@H]2Sc3ccccc3N(CCN(C)C)C(=O)[C@@H]2OC(C)=O)cc1` [DILTIAZEM], the inhibition is 14%.

As to `Cc1c(C(N)=O)cc([N+](=O)[O-])cc1[N+](=O)[O-]` [DINITOLMIDE], the inhibition is 5%.

Turning to `COc1ccc(C(=O)c2ccccc2O)c(O)c1` [DIOXYBENZONE], the inhibition was determined as 11%.

Consider `CC(C)N(CCC(C(N)=O)(c1ccccc1)c1ccccn1)C(C)C` (stereo not drawn) [DISOPYRAMIDE], for which the inhibition stood at 10%.

Take `CN(C)CCOC(C)(c1ccccc1)c1ccccn1` (stereo not drawn) [DOXYLAMINE]: the inhibition was found to be 9%.

Regarding `C=C1CC[C@H](O)C/C1=C/C=C1\CCC[C@]2(C)[C@@H]([C@H](C)/C=C/[C@H](C)C(C)C)CC[C@@H]12` [ERGOCALCIFEROL], the inhibition is -1.77%.

Staying with this test, now noted: screening of NINDS set, sheet Screen 1; read-out: inhibition LmjIPCS.
As to `N[C@H](Cc1ccccc1)C(=O)O` [D-PHENYLALANINE], the inhibition is 9%.

As for `CC1(C)OC(=O)NC1=O` [DIMETHADIONE], the inhibition is 6.6%.

Staying with this test, now noted: single concentration 20mM as printed; screening of NINDS set, sheet Screen 1.
Regarding `CC(=O)Oc1ccc2c(c1)CC[C@@H]1[C@@H]2CC[C@]2(C)[C@@H](OC(C)=O)CC[C@@H]12` [ESTRADIOL DIACETATE], the “20mM inhibition LmjIPCS” value is reported as 1.59%.

These data come from paper PMC7802075 (ACS Infectious Diseases, 2020).
